Results from patent US20250215371A1, “MOTOR UNIT CHIP, MANUFACTURING METHOD THEREOF AND METHOD OF DETECTING PATHOLOGICAL EVENT USING THE SAME” (Taipei Medical University, priority 2023, published 2025).

Key:
Assay type in all cases: cell-based, mouse
myotubes = experiment: Calcium imaging (fura-2) of myotubes in the motor unit chip; conditions: n=8 fields
Method: (§1) Tri-cultures on 12.5 mm glass coverslips were briefly washed in HEPES Hanks' Buffer Solution (HHBS) (5.6 mM glucose, 20 mM Hepes, 3 mM NaHCO3, 0.3 mM Na2HPO4, 0.4 mM KH2PO4, 137 mM NaCl, 5.0 mM KCl, […], 4.1 mM MgSO4, 1.26 mM CaCl2, pH=7.4) and then the coverslip was incubated with fura-2 AM in 0.04% pluronic acid dissolved in HHBS to a final concentration of 20 μM for 30 mins at 37° C. After loading indicator, coverslips were washed in fresh HBSS for 10 mins at 37° C. and then transferred to an imaging chamber for microscopy experiments. Fura-2 imaging was performed on an Olympus IX71 microscope using a 20× objective lens. […] Intracellular Ca^2+ concentration ([Ca^2+]i) was monitored by sequential excitation (1 Hz) of fura-2 at 340 and 380 nm. […]
(§2) Images were processed using MetaFluor Analyst to draw regions of interest (ROIs), subtract background, and generate 340/380 ratios. […] Criterion “1” was empirically determined to exclude cells with poor signal to noise ratio. […]
(§3) Data were analyzed using the Student's t test. […] For statistical analyses of calcium image, MN and myotube data were assessed for normality using the D′Agostino-Pearson normality test. […] Percent responders was calculated using number of responders/total MNs or myotubes in the field.

MNs = experiment: Calcium imaging (fura-2) of motor neurons in the motor unit chip; conditions: n=8 fields
Method: as §1, §2, §3

Schwann cells = experiment: Calcium imaging (fura-2) of Schwann cells in the tri-culture; conditions: 50 mM extracellular K^+ or 10 μM ACh
Method: After loading indicator, coverslips were washed in fresh HBSS for 10 mins at 37° C. and then transferred to an imaging chamber for microscopy experiments. Fura-2 imaging was performed on an Olympus IX71 microscope using a 20× objective lens. Excitation wavelength was selected with a galvanometer-driven monochromator (8 nm slit width) coupled to a 75 W xenon arc lamp (Optoscan; Cairn Research). […] A single image was acquired at 610 nm to identify mApple expressing MNs in the field. Fluorescent images were captured using a cooled charge-coupled device camera (Cascade 512B; Roper Scientific) and Metafluor acquisition software (Molecular Devices). All fura-2 experiments were performed in HBSS buffer at room temperature. To depolarize MNs the extracellular K^+ concentration was increased to 50 mM with K^+ exchanged reciprocally for Na+in HHBS. For myotube stimulation 10 μM ACh was applied by bath perfusion. A 60 s baseline in HHBS was acquired before stimulation of each coverslip. High K^+ was applied for 30 s and ACh for 1 min. After stimulus application, a washout of 60 s was performed. Background images were acquired after each experiment; the coverslip was wiped clean, then 20 frames were acquired using the same parameters as above. Images were processed using MetaFluor Analyst to draw regions of interest (ROIs), subtract background, and generate 340/380 ratios. […]

SMILES | myotubes responded to ACh stimulation (percent responders) (myotubes; 10 μM ACh for 60 s, 24/27 cells) | ACh-evoked peak 340/380 ratio ([Ca^2+]i) (myotubes; 10 μM ACh, basal 340/380 ratio 0.68±0.12, mean ±SD) | MNs responded to 50 mM K^+ stimulation (percent responders) (MNs; 50 mM K^+ for 30 s, 43/62 cells) | depolarization-evoked peak 340/380 ratio ([Ca^2+]i) (MNs; 50 mM K^+, basal 340/380 ratio 0.62±0.06, mean ±SD) | changes in [Ca^2+]i in Schwann cells (Schwann cells)
CC(=O)OCC[N+](C)(C)C [ACh, acetylcholine] | 89% | 3.62±2.73 |  |  | 
[Cl-].[K+] [K^+] |  |  | 70% | 1.83±1.41 | did not show any changes in [Ca^2+]i
